Series [1] deals with Hepatotoxicity.
The subject of series [2] is Hepatotoxicity. The source holds these as a separate data set.
Series [3] deals with Hepatotoxicity. This is another data set of the same source.
Series [4] relates to Hepatotoxicity. This is another data set of the same source.
Series [5] deals with Hepatotoxicity. The source holds these as a separate data set.
In series [6] the test system is Hepatotoxicity. The source holds these as a separate data set.
The test system of series [7] is Hepatotoxicity. This is another data set of the same source.
In series [8] the test system is Hepatotoxicity. The source holds these as a separate data set.
Series [9] relates to Hepatotoxicity. This is another data set of the same source.
Series [10] deals with Hepatotoxicity. This is another data set of the same source.
In series [11] the test system is Hepatotoxicity. The source holds these as a separate data set.
Series [12] concerns Hepatotoxicity. The source holds these as a separate data set.
Series [13] relates to Hepatotoxicity. This is another data set of the same source.
The subject of series [14] is Hepatotoxicity. This is another data set of the same source.
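Wherever HepSE Combined Scores is given: combined hepatic side effect score as listed in the training data of the Drug Induced Liver Injury Prediction System (DILIps).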
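Wherever HepSE bilirubinemia is given: bilirubinemia hepatic side effect score drawn from the DILIps training data, a prediction system for drug-induced liver injury; call rule not given here.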
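Wherever HepSE cholecystitis is given: Cholecystitis-related hepatic side effect score drawn from the DILIps (drug-induced liver injury prediction) training data set; call rule not given here.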
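Wherever HepSE cholelithiasis is given: hepatic side effect score for cholelithiasis, drawn from the DILIps training data for predicting drug-induced liver injury; call rule not given here.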
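Wherever HepSE cirrhosis is given: cirrhosis hepatic side effect score taken from the DILIps (drug-induced liver injury prediction) training set; call rule not given here.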
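Wherever HepSE elevated liver function tests is given: hepatic side effect score for raised liver function tests, as recorded in the DILIps training set used for predicting drug-induced liver injury.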
Wherever HepSE hepatic failure is given: call rule not given here.
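Wherever HepSE hepatic necrosis is given: score of hepatic side effects for hepatic necrosis, drawn from the training data of DILIps, a prediction system for drug-induced liver injury; call rule not given here.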
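Wherever HepSE hepatitis is given: Hepatitis-related hepatic side effect score taken from the training data of DILIps, a prediction system for drug-induced liver injury; call rule not given here.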
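Wherever HepSE hepatomegaly is given: hepatic side effect score for hepatomegaly, taken from the training set of the DILIps drug-induced liver injury prediction system; call rule not given here.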
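Wherever HepSE jaundice is given: Jaundice-related hepatic side-effect score drawn from the training data of the DILIps (drug-induced liver injury prediction system); call rule not given here.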
Wherever HepSE liver disease is given: call rule not given here.
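Wherever HepSE liver fatty is given: hepatic side effect score for fatty liver, taken from the DILIps training set for predicting drug-induced liver injury; call rule not given here.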
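Wherever HepSE liver function tests abnormal is given: hepatic side effect score taken from the DILIps (drug-induced liver injury prediction system) training data, here covering abnormal liver function test findings.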

On to `CC(=O)[O-].[Na+]` [SODIUM ACETATE], for which the HepSE_cholecystitis with Hepatotoxicity [1] (Liver) is given as 0. The “HepSE_Combined Scores” value in the series with Hepatotoxicity [2] (Liver) came to 0. Further, in the series with Hepatotoxicity [3] (Liver), the HepSE_jaundice is on record as 0. In the series with Hepatotoxicity [4] (Liver), this compound returned a HepSE_cirrhosis of 0. Besides, the “HepSE_liver function tests abnormal” value in the series with Hepatotoxicity [5] (Liver) was found to be 0. Further, in the series with Hepatotoxicity [6] (Liver), the HepSE_liver disease is 0. In the series with Hepatotoxicity [7] (Liver), this compound registered a HepSE_hepatic failure of 0. Besides, in the series with Hepatotoxicity [8] (Liver), the HepSE_bilirubinemia was determined as 0. The HepSE_hepatic necrosis in the series with Hepatotoxicity [9] (Liver) amounted to 0. Moreover, the HepSE_hepatomegaly in the series with Hepatotoxicity [10] (Liver) was 0. In addition, in the series with Hepatotoxicity [11] (Liver), the HepSE_cholelithiasis is on record as 0. In addition, the “HepSE_elevated liver function tests” value with Hepatotoxicity [12] (Liver) was 0. The compound also yielded a HepSE_hepatitis with Hepatotoxicity [13] (Liver) of 0. Besides, the HepSE_liver fatty in the series on Hepatotoxicity [14] (Liver) is on record as 0.
The compound `CCOC(=O)Nc1ccc2c(c1)N(C(=O)CCN1CCOCC1)c1ccccc1S2` [MORICIZINE] returned a HepSE_cholecystitis in the series with Hepatotoxicity [1] of 0. In addition, the “HepSE_Combined Scores” value with Hepatotoxicity [2] turned out to be 2. The HepSE_jaundice in the series with Hepatotoxicity [3] is given as 1. The HepSE_cirrhosis in the series with Hepatotoxicity [4] is reported as 0. Besides, in the series with Hepatotoxicity [5], the “HepSE_liver function tests abnormal” value is reported as 0. Also, the HepSE_liver disease with Hepatotoxicity [6] is given as 0. In addition, the HepSE_hepatic failure in the series with Hepatotoxicity [7] stood at 0. The compound further came in with a HepSE_bilirubinemia in the series with Hepatotoxicity [8] of 0. In addition, the HepSE_hepatic necrosis in the series on Hepatotoxicity [9] was 0. The same compound showed a HepSE_hepatomegaly in the series with Hepatotoxicity [10] of 0. The compound further gave a HepSE_cholelithiasis with Hepatotoxicity [11] of 0. For the same compound, the “HepSE_elevated liver function tests” value in the series with Hepatotoxicity [12] is given as 0. Besides, in the series with Hepatotoxicity [13], the HepSE_hepatitis is 1. The compound also returned a HepSE_liver fatty in the series with Hepatotoxicity [14] of 0.
`CN/C(=N/CCSCc1nc[nH]c1C)NC#N` [CIMETIDINE] gave a HepSE_cholecystitis in the series on Hepatotoxicity [1] (Liver) of 0. For the same compound, the “HepSE_Combined Scores” value in the series with Hepatotoxicity [2] (Liver) worked out at 0. The compound also came in with a HepSE_jaundice with Hepatotoxicity [3] (Liver) of 0. Besides, the HepSE_cirrhosis with Hepatotoxicity [4] (Liver) is 0. The “HepSE_liver function tests abnormal” value in the series with Hepatotoxicity [5] (Liver) was 0. Moreover, the HepSE_liver disease in the series with Hepatotoxicity [6] (Liver) turned out to be 0. In the series with Hepatotoxicity [7] (Liver), the HepSE_hepatic failure came to 0. For the same compound, in the series with Hepatotoxicity [8] (Liver), the HepSE_bilirubinemia turned out to be 0. In the series with Hepatotoxicity [9] (Liver), this compound gave a HepSE_hepatic necrosis of 0. The compound further displayed a HepSE_hepatomegaly in the series with Hepatotoxicity [10] (Liver) of 0. The same compound registered a HepSE_cholelithiasis in the series with Hepatotoxicity [11] (Liver) of 0. The “HepSE_elevated liver function tests” value with Hepatotoxicity [12] (Liver) is given as 0. Besides, the HepSE_hepatitis in the series on Hepatotoxicity [13] (Liver) is given as 0. The compound further showed a HepSE_liver fatty in the series with Hepatotoxicity [14] (Liver) of 0.
The compound `NC(=O)N1c2ccccc2CC(=O)c2ccccc21` [OXCARBAZEPINE] registered a HepSE_cholecystitis with Hepatotoxicity [1] of 0. Further, the “HepSE_Combined Scores” value in the series on Hepatotoxicity [2] was found to be 2. This compound also came in with a HepSE_jaundice in the series with Hepatotoxicity [3] of 0. The compound also showed a HepSE_cirrhosis in the series on Hepatotoxicity [4] of 0. Moreover, the “HepSE_liver function tests abnormal” value with Hepatotoxicity [5] was determined as 1. Further, the HepSE_liver disease in the series with Hepatotoxicity [6] was 0. The compound also showed a HepSE_hepatic failure with Hepatotoxicity [7] of 0. In the series with Hepatotoxicity [8], this compound yielded a HepSE_bilirubinemia of 0. In the series on Hepatotoxicity [9], this compound displayed a HepSE_hepatic necrosis of 0. In the series with Hepatotoxicity [10], this compound showed a HepSE_hepatomegaly of 0. This compound displayed a HepSE_cholelithiasis in the series on Hepatotoxicity [11] of 1. For the same compound, the “HepSE_elevated liver function tests” value in the series with Hepatotoxicity [12] is on record as 0. For the same compound, the HepSE_hepatitis in the series with Hepatotoxicity [13] came out at 0. In addition, the HepSE_liver fatty in the series on Hepatotoxicity [14] came to 0.
As for NYSTATIN, the HepSE_cholecystitis in the series with Hepatotoxicity [1] came to 0. The “HepSE_Combined Scores” value in the series on Hepatotoxicity [2] is on record as 0. The HepSE_jaundice in the series with Hepatotoxicity [3] worked out at 0. The same compound displayed a HepSE_cirrhosis in the series with Hepatotoxicity [4] of 0. For the same compound, in the series with Hepatotoxicity [5], the “HepSE_liver function tests abnormal” value came out at 0. For the same compound, in the series with Hepatotoxicity [6], the HepSE_liver disease is 0. Moreover, the HepSE_hepatic failure in the series on Hepatotoxicity [7] is on record as 0. The compound further showed a HepSE_bilirubinemia in the series on Hepatotoxicity [8] of 0. In the series with Hepatotoxicity [9], the HepSE_hepatic necrosis is listed as 0. This compound displayed a HepSE_hepatomegaly in the series with Hepatotoxicity [10] of 0. The compound further displayed a HepSE_cholelithiasis with Hepatotoxicity [11] of 0. For the same compound, the “HepSE_elevated liver function tests” value in the series with Hepatotoxicity [12] stood at 0. The HepSE_hepatitis in the series on Hepatotoxicity [13] was 0. In the series on Hepatotoxicity [14], this compound gave a HepSE_liver fatty of 0.

Values taken from ChEMBL document CHEMBL1909294, “Translating clinical findings into knowledge in drug safety evaluation--drug induced liver injury prediction system (DILIps)” (PLoS Comput Biol, 2011).
